Consider eleven compounds from ChEMBL document CHEMBL1201862, “PubChem BioAssay data set” (2004).

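A five-concentration, 48-hour dose response in 96-well plates underlies each endpoint, interpolated linearly between surrounding concentrations. Here, GI50 denotes the concentration required for 50% inhibition of growth.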 Calls of active or inactive are those of the source. Cut-off read from the data, not from the text of the source: active = GI50 up to about 1.1 µM and inactive = higher. A value given as a limit tells only on which side of the number the result lay.

Test systems include DU-145; HCT-116; HCT-15; HL-60; KM12; M14; MCF7; MDA-MB-435; MDA-N; Malme-3M; NCI-H23; NCI-H522; OVCAR-3; OVCAR-5; SF-268; SF-295; SK-MEL-2; SNB-75; SR; RPMI-8226.
Common to all, as to experiment: NCI-60 cell line screen, 48 h

With `c1cncc(CSc2ncnc3[nH]cnc23)c1`, the GI50 in the experiment on DU-145 was > 100 µM (inactive); in the experiment on HCT-116, > 100 µM (inactive); in the experiment with HCT-15, more than 100 µM; with HL-60 it was > 100 µM (inactive); in the experiment with KM12, > 100 µM (inactive); in the experiment with M14 it was > 100 µM (inactive). Further, the GI50 with MCF7, in the experiment with MDA-MB-435, in the experiment with MDA-N, in the experiment with Malme-3M, in the experiment with NCI-H23 and in the experiment on NCI-H522 was > 100 µM (inactive) in each case. The GI50 in the experiment with OVCAR-3, in the experiment on OVCAR-5, in the experiment with SF-268, with SF-295, with SK-MEL-2 and with SNB-75 was > 100 µM (inactive) throughout. Further, the GI50 with SR is > 100 µM (inactive).
As to `Nc1nnnn1NC(=O)NCCCl`, the GI50 was > 10 µM (inactive) with DU-145; > 10 µM (inactive) in the experiment with HCT-116; more than 10 µM in the experiment on HCT-15; > 10 µM (inactive) in the experiment on HL-60; > 10 µM (inactive) in the experiment with KM12; > 10 µM (inactive) in the experiment on M14. In addition, the GI50 with MCF7, in the experiment with MDA-MB-435, in the experiment with MDA-N, in the experiment on Malme-3M, in the experiment with NCI-H23 and with NCI-H522 was > 10 µM (inactive) each time. Besides, the GI50 with OVCAR-3, in the experiment with RPMI-8226, in the experiment on SF-268, in the experiment on SF-295, in the experiment with SK-MEL-2 and with SNB-75 was > 10 µM (inactive) each time. Besides, in the experiment with SR, the GI50 was > 10 µM (inactive).
For `O=C(CC(O)(C(F)(F)Cl)C(F)(F)Cl)CC(O)(C(F)(F)Cl)C(F)(F)Cl`, the GI50 is 0.515 µM (active) in the experiment with DU-145; 1.19 µM (inactive) in the experiment on HCT-116; 1.07 µM in the experiment with HCT-15; 1.78 µM (inactive) in the experiment on HL-60; 3.04 µM (inactive) in the experiment on KM12; 4.03 µM (inactive) in the experiment with M14. For the same compound, the GI50 with MCF7 is 2.14 µM (inactive); with MDA-MB-435, 1.69 µM (inactive); in the experiment on MDA-N it was 3.49 µM (inactive); in the experiment with Malme-3M it was 0.483 µM (active); with NCI-H23, 0.975 µM (active); in the experiment with NCI-H522, 1.2 µM (inactive). Moreover, the GI50 with OVCAR-3 is 1.12 µM (inactive); with RPMI-8226, 0.516 µM (active); in the experiment with SF-268, 1.5 µM (inactive); in the experiment on SF-295, 2.36 µM (inactive); in the experiment with SK-MEL-2, 1.13 µM (inactive); with SNB-75, 1.76 µM (inactive). Also, in the experiment with SR, the GI50 is 2.65 µM (inactive).
As for `Nc1ccc2c(O)cc(O)nc2n1`, the GI50 was > 100 µM (inactive) in the experiment on DU-145; > 100 µM (inactive) with HCT-116; more than 100 µM with HCT-15; > 100 µM (inactive) in the experiment on HL-60; > 100 µM (inactive) in the experiment with KM12; > 100 µM (inactive) with M14. For the same compound, the GI50 was > 100 µM (inactive) in the experiment with MCF7; > 100 µM (inactive) in the experiment with MDA-MB-435; > 100 µM (inactive) with MDA-N; 37.8 µM (inactive) in the experiment on Malme-3M; > 100 µM (inactive) in the experiment with NCI-H23; > 100 µM (inactive) with NCI-H522. Also, the GI50 in the experiment on OVCAR-5, in the experiment with RPMI-8226, with SF-268, in the experiment on SF-295, in the experiment with SK-MEL-2 and in the experiment on SNB-75 was > 100 µM (inactive) each time. Moreover, the GI50 in the experiment on SR was > 100 µM (inactive).
As for `Nc1nc(Cl)c(CO)c(NCC2(CO)CC(CCc3ccccc3)C2)n1` (configuration not stated), the GI50 with DU-145 was 22.6 µM (inactive); in the experiment on HCT-116, 0.979 µM (active); in the experiment on HCT-15, 20.6 µM; with HL-60, 3.4 µM (inactive); with KM12, 0.264 µM (active); in the experiment on MCF7 it was 14.3 µM (inactive). For the same compound, the GI50 was 11.5 µM (inactive) in the experiment on MDA-MB-435; > 100 µM (inactive) with MDA-N; 14.2 µM (inactive) in the experiment with Malme-3M; 0.0951 µM (active) with NCI-H23; 15.7 µM (inactive) in the experiment on NCI-H522; 18.8 µM (inactive) in the experiment on OVCAR-3. Further, the GI50 is 29.2 µM (inactive) in the experiment on OVCAR-5; 3.5 µM (inactive) in the experiment on RPMI-8226; 43.1 µM (inactive) in the experiment on SF-268; 10.6 µM (inactive) in the experiment with SF-295; 16.1 µM (inactive) in the experiment with SNB-75; 4.82 µM (inactive) in the experiment with SR.
Regarding `COC(=O)C1C(C(=O)OC)C2(OC(c3ccc(Cl)cc3)=CC2=O)C12OC(c1ccc(Cl)cc1)=CC2=O` (configuration not stated), the GI50 with DU-145 is 29.9 µM (inactive); in the experiment with HCT-116, 14.9 µM (inactive); with HCT-15, 16.4 µM; in the experiment with HL-60, 2.81 µM (inactive); in the experiment with M14, 19.1 µM (inactive); with MCF7, 18 µM (inactive). Also, the GI50 with MDA-MB-435 is 22.5 µM (inactive); with MDA-N, 18.3 µM (inactive); with Malme-3M, 17.3 µM (inactive); with NCI-H23, 20.8 µM (inactive); with NCI-H522, 18.4 µM (inactive); in the experiment with OVCAR-3, 19.2 µM (inactive). The GI50 in the experiment with OVCAR-5 is 24.3 µM (inactive); in the experiment with RPMI-8226 it was 7.21 µM (inactive); in the experiment on SF-268, 24.5 µM (inactive); in the experiment with SF-295, 22.6 µM (inactive); with SK-MEL-2, 24 µM (inactive); in the experiment on SR it was 1.96 µM (inactive).
Consider `CC(C(=O)ON1C(=O)CCC1=O)c1ccc(C(=O)c2ccccc2)s1` (configuration not stated), for which the GI50 in the experiment with DU-145 was > 100 µM (inactive); in the experiment with HCT-116, > 100 µM (inactive); with HCT-15, more than 100 µM; in the experiment on KM12, > 100 µM (inactive); in the experiment with M14, > 100 µM (inactive); in the experiment on MCF7, > 100 µM (inactive). In addition, the GI50 in the experiment with MDA-MB-435, in the experiment with MDA-N, with Malme-3M, with NCI-H23, in the experiment on NCI-H522 and in the experiment with OVCAR-3 was > 100 µM (inactive) throughout. The GI50 in the experiment on OVCAR-5, with RPMI-8226, with SF-268, in the experiment on SF-295, in the experiment on SK-MEL-2 and in the experiment with SNB-75 was > 100 µM (inactive) each time. Further, the GI50 in the experiment on SR was > 100 µM (inactive).
For `COC(=O)CCC(NC(=O)OC(C)(C)C)C(=O)NC(Cc1ccc(NC(=O)CCCC(C)=O)cc1)C(=O)NC(CCC(=O)OC)C(=O)OC` (configuration not stated), the GI50 with DU-145 was > 100 µM (inactive); with HCT-116, > 100 µM (inactive); with HCT-15 it was more than 100 µM; with KM12, > 100 µM (inactive); with M14 it was > 100 µM (inactive); in the experiment with MCF7 it was > 100 µM (inactive). For the same compound, the GI50 in the experiment with MDA-MB-435, in the experiment on MDA-N, with Malme-3M, with NCI-H23, with NCI-H522 and in the experiment with OVCAR-3 was > 100 µM (inactive) in each case. Besides, the GI50 in the experiment on OVCAR-5, in the experiment with RPMI-8226, in the experiment on SF-268, in the experiment on SF-295, in the experiment on SK-MEL-2 and in the experiment on SNB-75 was > 100 µM (inactive) each time. In the experiment on SR, the GI50 was > 100 µM (inactive).
Consider `CC(=O)O[C@H]1C(=O)[C@@]2(C)[C@H]([C@H](OC(=O)c3ccccc3)[C@]3(O)C[C@H](OC(=O)[C@H](O)[C@@H](NC(=O)C(C)(C)C)c4ccccc4)C(C)=C1C3(C)C)[C@]1(OC(C)=O)CO[C@@H]1C[C@@H]2O`, for which the GI50 is 0.106 µM (active) in the experiment with DU-145; 0.0322 µM (active) in the experiment on HCT-116; 1.41 µM in the experiment with HCT-15; 0.018 µM (active) in the experiment on HL-60; 0.0221 µM (active) in the experiment with KM12; 0.0982 µM (active) in the experiment on M14. Moreover, the GI50 in the experiment with MCF7 is 0.031 µM (active); with MDA-MB-435, 0.0158 µM (active); in the experiment on MDA-N, 0.022 µM (active); in the experiment on Malme-3M it was 0.165 µM (active); with NCI-H23, 0.075 µM (active); in the experiment on NCI-H522, 0.0306 µM (active). Moreover, the GI50 is 0.508 µM (active) in the experiment with OVCAR-5; 0.0305 µM (active) in the experiment with RPMI-8226; 0.168 µM (active) in the experiment on SF-268; 0.29 µM (active) in the experiment with SF-295; 0.0736 µM (active) in the experiment on SK-MEL-2; 0.0555 µM (active) in the experiment with SNB-75. Further, the GI50 with SR was 0.0405 µM (active).
Turning to `O=C1CCCCCC1CC(Sc1ccccc1)Sc1ccccc1` (configuration not stated), the GI50 in the experiment on DU-145 was > 100 µM (inactive); in the experiment with HCT-15, more than 100 µM; in the experiment on HL-60 it was 21 µM (inactive); with KM12, 60.8 µM (inactive); in the experiment on M14 it was > 100 µM (inactive); with MCF7, 72.3 µM (inactive). Moreover, the GI50 in the experiment on MDA-MB-435 is > 100 µM (inactive); in the experiment on MDA-N it was > 100 µM (inactive); in the experiment on Malme-3M, > 100 µM (inactive); in the experiment on NCI-H23 it was 75.3 µM (inactive); with NCI-H522, 65.3 µM (inactive); with OVCAR-3, 46.9 µM (inactive). Besides, the GI50 with OVCAR-5 was > 100 µM (inactive); in the experiment on RPMI-8226, 37.6 µM (inactive); in the experiment with SF-268, > 100 µM (inactive); with SF-295, > 100 µM (inactive); with SK-MEL-2 it was > 100 µM (inactive); in the experiment with SNB-75 it was 49.3 µM (inactive). The GI50 in the experiment with SR is 32.8 µM (inactive).
As to `CCOC(=O)C1=C(C#N)S(=O)(=O)c2c(oc(C)c2C)N1`, the GI50 is > 100 µM (inactive) in the experiment on DU-145; > 100 µM (inactive) in the experiment on HCT-116; more than 100 µM with HCT-15; > 100 µM (inactive) with KM12; > 100 µM (inactive) in the experiment on M14; > 100 µM (inactive) in the experiment with MCF7. The GI50 in the experiment on MDA-MB-435, with MDA-N, in the experiment with Malme-3M, in the experiment on NCI-H23, with NCI-H522 and with OVCAR-3 was > 100 µM (inactive) each time. Also, the GI50 in the experiment on OVCAR-5, in the experiment with RPMI-8226, in the experiment on SF-268, with SF-295, in the experiment on SK-MEL-2 and in the experiment on SNB-75 was > 100 µM (inactive) in each case. The GI50 in the experiment on SR is > 100 µM (inactive).
